# Reference: US10597388B2, “Pyridazinone herbicides” (FMC CORPORATION, priority 2014, dated 2020)
# Assays:
# Type in all cases: in vivo
# [1] = test system: blackgrass (Alopecurus myosuroides); experiment: Test A greenhouse herbicide test, postemergence; settings: for Blackgrass plant response rating: 0 to 100 scale, 0 is no effect, 100 is complete control
# Outline: (§1)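 Greenhouse postemergence test: formulated chemicals sprayed on one- to two-leaf plants (2 to 10 cm), grown in loam soil blended with sand. Injury assessed visually about 10 d later against untreated controls, scored 0 (no effect) to 100 (complete control).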
# [2] = test system: galium (catchweed bedstraw, Galium aparine); experiment: Test A greenhouse herbicide test, postemergence
# Outline: as §1
# [3] = test system: barnyardgrass (Echinochloa crus-galli); experiment: Test B flooded paddy test; settings: 250 g ai/ha, Flood; visual rating on scale of 0 to 100 where 0 is no effect and 100 is complete control; 13 to 15 d after treatment
# Outline: (§2)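 Plants at the 2-leaf stage were flooded to 3 cm above soil, and test compounds were applied directly into the paddy water, which was held at that depth throughout. After 13 to 15 d in a greenhouse, injury was rated visually against untreated controls on a 0–100 scale (0 no effect, 100 complete control).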
# [4] = test system: ducksalad (Heteranthera limosa); experiment: Test B flooded paddy test; settings: 250 g ai/ha, Flood; visual rating on scale of 0 to 100 where 0 is no effect and 100 is complete control; 13 to 15 d after treatment
# Outline: as §2
# rice (Oryza sativa) = experiment: Test B flooded paddy test; settings: 250 g ai/ha, Flood; visual rating on scale of 0 to 100 where 0 is no effect and 100 is complete control; 13 to 15 d after treatment
# Outline: as §2
# [5] = test system: sedge, umbrella (small-flower umbrella sedge, Cyperus difformis); experiment: Test B flooded paddy test; settings: 250 g ai/ha, Flood; visual rating on scale of 0 to 100 where 0 is no effect and 100 is complete control; 13 to 15 d after treatment
# Outline: as §2
# [6] = test system: johnsongrass (Sorghum halepense); experiment: Test C greenhouse herbicide test, pre- and postemergence
# Outline: (§3)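 Two application timings: at sowing into a soil/sand blend, and on 2–18 cm seedlings in peat-vermiculite potting mix. A non-phytotoxic, surfactant-containing solvent carried the compounds. Plants were compared with controls and rated visually on 0–100 after 13–15 d.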
# [7] = test system: pigweed (Amaranthus retroflexus); experiment: as above
# Outline: as §3
# [8] = test system: wheat (winter wheat, Triticum aestivum); experiment: as above
# Outline: as §3
# [9] = test system: chickweed (common chickweed, Stellaria media); experiment: Test C greenhouse herbicide test, postemergence
# Outline: (§4)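 Postemergence foliar treatment, 1- to 4-leaf stage (2–18 cm), peat/vermiculite medium; greenhouse 13–15 d; visual rating vs controls, 0 = no effect, 100 = complete control; dash = no result.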
# kochia (Kochia scoparia) = experiment: Test C greenhouse herbicide test, postemergence; settings: for Plant response rating, Kochia: Postemergence; for Kochia plant response rating: postemergence, 62 g ai/ha
# Outline: as §4
# [10] = test system: oat, wild (wild oat, Avena fatua); experiment: Test C greenhouse herbicide test, postemergence; settings: for Plant response rating, Oat, Wild: Postemergence; for Oat, Wild plant response rating: postemergence, 62 g ai/ha
# Outline: as §4
# [11] = 125 g ai/ha, 0 to 100 scale where 0 is no effect and 100 is complete control
# [12] = Postemergence, 125 g ai/ha, scale 0 to 100, 0 is no effect, 100 is complete control
# [13] = Postemergence, 250 g ai/ha, scale 0 to 100, 0 no effect, 100 complete control, 13 to 15 d
# [14] = Preemergence, 31 g ai/ha, scale 0 to 100, 0 is no effect, 100 is complete control
# [15] = Preemergence, 62 g ai/ha, scale 0 to 100, 0 is no effect, 100 is complete control
# [16] = Preemergence, 125 g ai/ha, scale 0 to 100, 0 is no effect, 100 is complete control
# [17] = Preemergence, 250 g ai/ha, scale 0 to 100, 0 no effect, 100 complete control
# [18] = postemergence, 62 g ai/ha, scale 0 to 100, 0 no effect, 100 complete control
# [19] = Postemergence, 31 g ai/ha, 0 to 100 scale (0 no effect, 100 complete control)
# [20] = 125 g ai/ha, scale 0 to 100, 0 is no effect, 100 is complete control
# [21] = 250 g ai/ha, scale 0 to 100, 0 no effect, 100 complete control, 13 to 15 d
# [22] = scale 0 to 100, 0 no effect, 100 complete control
# [23] = 500 g ai/ha, visual rating after approx. 10 d, 0 to 100 scale (0 no effect, 100 complete control)
# [24] = Postemergence, 31 g ai/ha, scale 0 to 100 (0 no effect, 100 complete control)
# [25] = 31 g ai/ha, scale 0 to 100 (0 no effect, 100 complete control)
SMILES,"Plant response rating, Blackgrass [1, 11]","Plant response rating, Galium [2, 11]","Plant response rating, Barnyardgrass [3]","Plant response rating, Ducksalad [4]","Plant response rating, Rice (rice (Oryza sativa))","Plant response rating, Sedge, Umbrella [5]","Plant response rating, Johnsongrass [6, 12]","Plant response rating, Johnsongrass [6, 13]","Plant response rating, Johnsongrass [6, 14]","Plant response rating, Johnsongrass [6, 15]","Plant response rating, Johnsongrass [6, 16]","Johnsongrass plant response rating [6, 17]","Plant response rating, Pigweed [7, 12]","Plant response rating, Pigweed [7, 13]","Plant response rating, Pigweed [7, 14]","Plant response rating, Pigweed [7, 15]","Plant response rating, Pigweed [7, 16]","Pigweed plant response rating [7, 17]","Plant response rating, Wheat [8, 12]","Plant response rating, Wheat [8, 13]",also measured
Cc1sc2ccccc2c1-c1c(O)c(Cl)nn(C)c1=O [Compound 89],30,90,0,65,0,40,0,5,0,75,0,5,80,95,95,100,100,100,0,0,"Blackgrass plant response rating ([1]; 500 g ai/ha): 60; Galium plant response rating ([2]; 500 g ai/ha, 0 to 100 scale, 0 is no effect, 100 is complete control): 90; Johnsongrass plant response rating [6, 18]: 0; Pigweed plant response rating [7, 18]: 75; Plant response rating, Wheat [8, 14]: 0; Plant response rating, Wheat [8, 15]: 0; Plant response rating, Wheat [8, 16]: 0; Wheat plant response rating [8, 17]: 0; Wheat plant response rating [8, 18]: 0; Chickweed plant response rating [9, 19]: 90; Plant response rating, Chickweed [9, 12]: 100; Plant response rating, Chickweed [9, 13]: 100; Chickweed plant response rating [9, 18]: 95; Plant response rating, Kochia (kochia (Kochia scoparia); [20]): 90; Plant response rating, Kochia (kochia (Kochia scoparia); [21]): 100; Kochia plant response rating (kochia (Kochia scoparia); [22]): 90; Plant response rating, Oat, Wild [10, 20]: 30; Plant response rating, Oat, Wild [10, 21]: 40; Oat, Wild plant response rating [10, 22]: 10"
CC(=O)Oc1c(C)nn(C)c(=O)c1-c1c(C)cc(C)c2ccccc12 [Compound 99],60,100,0,0,0,0,10,5,0,0,0,20,98,95,95,100,100,100,10,10,"Blackgrass plant response rating ([1]; 500 g ai/ha): 80; Plant response rating, Galium [2, 23]: 100; Johnsongrass plant response rating [6, 18]: 10; Pigweed plant response rating [7, 18]: 75; Plant response rating, Wheat [8, 14]: 0; Plant response rating, Wheat [8, 15]: 0; Plant response rating, Wheat [8, 16]: 30; Wheat plant response rating [8, 17]: 65; Wheat plant response rating [8, 18]: 0; Chickweed plant response rating [9, 19]: 90; Plant response rating, Chickweed [9, 12]: 90; Plant response rating, Chickweed [9, 13]: 90; Chickweed plant response rating [9, 18]: 90; Plant response rating, Kochia (kochia (Kochia scoparia); [20]): 90; Plant response rating, Kochia (kochia (Kochia scoparia); [21]): 95; Kochia plant response rating (kochia (Kochia scoparia); [22]): 85; Plant response rating, Oat, Wild [10, 20]: 90; Plant response rating, Oat, Wild [10, 21]: 95; Oat, Wild plant response rating [10, 22]: 70"
Cc1ccc2ccccc2c1-c1c(O)c(C(F)(F)F)nn(C)c1=O [Compound 102],20,100,0,0,0,50,0,10,0,0,0,0,95,100,75,85,98,100,5,5,"Blackgrass plant response rating ([1]; 500 g ai/ha): 70; Plant response rating, Galium [2, 23]: 100; Plant response rating, Johnsongrass [6, 24]: 0; Plant response rating, Pigweed [7, 24]: 75; Plant response rating, Wheat [8, 24]: 0; Plant response rating, Wheat [8, 14]: 0; Plant response rating, Wheat [8, 15]: 5; Wheat plant response rating [8, 17]: 25; Plant response rating, Chickweed [9, 24]: 95; Plant response rating, Chickweed [9, 12]: 95; Plant response rating, Chickweed [9, 13]: 98; Chickweed plant response rating [9, 18]: 95; Plant response rating, Kochia (kochia (Kochia scoparia); [25]): 0; Plant response rating, Kochia (kochia (Kochia scoparia); [20]): 20; Plant response rating, Kochia (kochia (Kochia scoparia); [21]): 50; Plant response rating, Oat, Wild [10, 25]: 5; Plant response rating, Oat, Wild [10, 20]: 10; Plant response rating, Oat, Wild [10, 21]: 25"
CCC(=O)Oc1c(C)nn(C)c(=O)c1-c1ccc(F)c2ccccc12 [Compound 113],90,100,0,0,0,0,10,20,0,10,20,30,95,98,70,75,100,100,5,15,"Plant response rating, Blackgrass [1, 23]: 90; Plant response rating, Galium [2, 23]: 100; Plant response rating, Johnsongrass [6, 24]: 0; Plant response rating, Pigweed [7, 24]: 65; Plant response rating, Wheat [8, 24]: 5; Plant response rating, Wheat [8, 14]: 0; Plant response rating, Wheat [8, 15]: 30; Plant response rating, Wheat [8, 16]: 35; Wheat plant response rating [8, 17]: 50; Plant response rating, Chickweed [9, 24]: 90; Plant response rating, Chickweed [9, 12]: 98; Plant response rating, Chickweed [9, 13]: 100; Chickweed plant response rating [9, 18]: 90; Plant response rating, Kochia (kochia (Kochia scoparia); [25]): 95; Plant response rating, Kochia (kochia (Kochia scoparia); [20]): 95; Plant response rating, Kochia (kochia (Kochia scoparia); [21]): 100; Plant response rating, Oat, Wild [10, 25]: 90; Plant response rating, Oat, Wild [10, 20]: 90; Plant response rating, Oat, Wild [10, 21]: 90"
Cc1nn(C)c(=O)c(-c2c(C)sc3ccc(C(F)(F)F)cc23)c1O [Compound 121],20,70,0,0,0,0,5,5,0,0,0,10,90,98,100,98,90,100,25,0,"Plant response rating, Blackgrass [1, 23]: 50; Plant response rating, Galium [2, 23]: 90; Plant response rating, Johnsongrass [6, 24]: 0; Plant response rating, Pigweed [7, 24]: 75; Plant response rating, Wheat [8, 24]: 5; Plant response rating, Wheat [8, 14]: 0; Plant response rating, Wheat [8, 15]: 0; Plant response rating, Wheat [8, 16]: 10; Wheat plant response rating [8, 17]: 15; Plant response rating, Chickweed [9, 24]: 90; Plant response rating, Chickweed [9, 12]: 90; Plant response rating, Chickweed [9, 13]: 98; Chickweed plant response rating [9, 18]: 90; Plant response rating, Kochia (kochia (Kochia scoparia); [25]): 90; Plant response rating, Kochia (kochia (Kochia scoparia); [20]): 95; Plant response rating, Kochia (kochia (Kochia scoparia); [21]): 95; Plant response rating, Oat, Wild [10, 25]: 65; Plant response rating, Oat, Wild [10, 20]: 80; Plant response rating, Oat, Wild [10, 21]: 90"
